Experimental data taken from patent publication US20060079453A1, “Hla binding peptides and their uses” (priority 2002, published 2006).
pIC50: −log10 of the molar value. Read-outs that look alike come from different tables or passages of the source. No end group written: not given here.

How the values were obtained:
Experiment in all cases: biochemical
Assay type in all cases: binding
HLA-DR DRB1*0101 (DR1) = HLA-DR DRB1*0101 (DR1) (Homo sapiens, UniProt P01903+P01911, A100R/D57E/F55L/F60I/F76Y/I96L/L162R/M171V/P40L/Q125E/R42F/V115G/Y59C)
HLA-DR DRB1*0401 (DR4) = HLA-DR DRB1*0401 (DR4) (Homo sapiens, UniProt P01903+P01911, A100K/A169T/F76Y/I96L/K127E/L162R/M171V/N62H/P40V/Q125Y/R42H/S133A/S149N/S66Y/V115G/V209L/W38E)
HLA-DR DRB1*0701 (DR7) = HLA-DR DRB1*0701 (DR7) (Homo sapiens, UniProt P01903+P01911, A100R/A102G/A103Q/D57E/D86V/E43K/F76Y/K127E/L162R/M171V/P40G/Q125H/Q99D/R33Q/R42Y/R54Q/S133A/S66F/T210M/V115G/Y107V/Y59L/Y89S)
HLA-DR DRB1*0802 (DR8) = HLA-DR DRB1*0802 (DR8) (Homo sapiens, UniProt P01903+P01911, A100R/A103L/A169T/F76Y/H45Y/I96F/K41T/L162R/M171V/P40S/Q125H/Q178H/Q39Y/Q99D/R218S/R42G/S66Y/V115G/W38E)
HLA-DR DRB1*1302 (DR13) = HLA-DR DRB1*1302 (DR13) (Homo sapiens, UniProt P01903+P01911, A100E/A169T/K41T/L162R/M171V/P40S/Q125H/Q178H/Q39Y/Q99D/R42S/S66N/T262R/V115G/W38E/Y61H)
HLA-DR DRB1*1501 (DR15) = HLA-DR DRB1*1501 (DR15) (Homo sapiens, UniProt P01903+P01911)
HLA-DR DRB4*0101 (DR53) = HLA-DR DRB4*0101 (DR53) (Homo sapiens, UniProt P01903+P13762, G164S)
HLA-DR DRB5*0101 (DR51) = HLA-DR DRB5*0101 (DR51) (Homo sapiens, UniProt P01903+Q30154); details: DRB5 *0101
HLA-DR DRB1*0901 (DR9) = HLA-DR DRB1*0901 (DR9) (Homo sapiens, UniProt P01903+P01911, A100R/A103E/D57H/D86V/F55Y/F60I/F76Y/I96F/K127E/L162R/M171V/P40D/Q125H/Q99R/R33Q/R42F/S133A/S66N/T210M/V115G/W38K/Y107V/Y59G/Y89S)
HLA-DR DRB1*1101 (DR11) = HLA-DR DRB1*1101 (DR11) (Homo sapiens, UniProt P01903+P01911, A100R/A169T/A87E/I96F/K41T/L162R/M171V/P40S/Q125H/Q178H/Q39Y/Q99D/R42S/S66Y/T262R/V115G/W38E); details: DRB1 *1101
HLA-DR DRB1*0301 (DR3) = HLA-DR DRB1*0301 (DR3) (Homo sapiens, UniProt P01903+P01911, A100K/A102G/A103R/A169T/F55Y/I96L/K41T/L162R/M171V/P40S/Q125H/Q178H/Q39Y/R42S/S66N/T106N/T262R/W38E/Y61H)
HLA-DR DRB1*0301 (DR3), sequence (P01903 26-254 limits assumed, other chains not shown): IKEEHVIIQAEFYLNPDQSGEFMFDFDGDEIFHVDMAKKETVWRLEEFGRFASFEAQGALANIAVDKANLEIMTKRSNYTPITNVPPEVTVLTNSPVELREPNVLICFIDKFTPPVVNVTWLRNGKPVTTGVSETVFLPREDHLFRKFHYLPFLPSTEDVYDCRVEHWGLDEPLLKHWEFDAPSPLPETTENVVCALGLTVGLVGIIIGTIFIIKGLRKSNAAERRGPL

HLA-DR DRB1*1101 (DR11), sequence (P01903 26-254 limits assumed, other chains not shown): as above
HLA-DR DRB1*1302 (DR13), sequence (P01903 26-254 limits assumed, other chains not shown): as above

Compound	pIC50 (HLA-DR DRB1*0101 (DR1); DRB1 *0101)	pIC50 (HLA-DR DRB1*0401 (DR4); DRB1 *0401)	pIC50 (HLA-DR DRB1*0701 (DR7); DRB1 *0701)	pIC50 (HLA-DR DRB1*0802 (DR8))	pIC50 (HLA-DR DRB1*1302 (DR13); DRBI *1302)	pIC50 (HLA-DR DRB1*1501 (DR15); DRBI *1501)	pIC50 (HLA-DR DRB4*0101 (DR53); DRB4 *0101)	pIC50 (HLA-DR DRB5*0101 (DR51))	pIC50 (HLA-DR DRB1*0901 (DR9); DRB1 *0901)	other results
YEALIKLLPFSKRIR	7.26	5.74	5.45	6.74	6.64	7.44	7.82	7.96	–	–
VLFLQMMNVNLQKQL	8.20	7.52	5.07	4.25	8.07	5.09	7.92	< 5.14	–	–
CC[C@H](C)[C@H](NC(=O)[C@H](Cc1ccc(O)cc1)NC(=O)[C@@H]1CCCN1)C(=O)N[C@@H](CC(C)C)C(=O)N[C@@H](CC(C)C)C(=O)N[C@H](C(=O)N[C@@H](CO)C(=O)N[C@@H](CO)C(=O)N[C@@H](CCCCN)C(=O)N[C@H](C(=O)N[C@@H](CO)C(=O)N[C@H](C(=O)N[C@H](C(=O)N[C@@H](CCCCN)C(=O)N[C@@H](CC(=O)O)C(=O)O)C(C)C)[C@@H](C)O)C(C)C)C(C)C	–	–	–	7.92	–	–	–	7.49	–	pIC50 (HLA-DR DRB1*0101 (DR1)): 8.96; pIC50 (HLA-DR DRB1*0401 (DR4)): 7.19; pIC50 (HLA-DR DRB1*0701 (DR7)): 7.42; pIC50 (HLA-DR DRB1*1302 (DR13)): 8.14; pIC50 (HLA-DR DRB1*1501 (DR15)): 7.66; pIC50 (HLA-DR DRB4*0101 (DR53)): 6.97
CC[C@H](C)[C@H](NC(=O)[C@H](CO)NC(=O)[C@H](CC(C)C)NC(=O)[C@@H](NC(=O)[C@H](CC(C)C)NC(=O)[C@H](CC(=O)O)NC(=O)[C@H](Cc1c[nH]c2ccccc12)NC(=O)[C@@H](N)CCSC)C(C)C)C(=O)N[C@@H](C)C(=O)N[C@@H](CC(C)C)C(=O)N[C@@H](CO)C(=O)N[C@H](C(=O)NCC(=O)N[C@@H](CS)C(=O)N[C@H](C(=O)O)[C@@H](C)O)C(C)C	6.69	5.73	5.52	4.64	6.97	4.94	6.80	4.15	5.76	pIC50 (HLA-DR DRB1*1101 (DR11)): 4.09
MSAMTNLAALFPPEG	–	–	–	–	–	–	–	–	–	pIC50 (HLA-DR DRB1*0401 (DR4); read-out: DRB1 *0401): 6.15; pIC50 (HLA-DR DRB1*0701 (DR7); read-out: DRB1 *0701): 4.44; pIC50 (HLA-DR DRB1*0802 (DR8); read-out: DRB1 *0802): 4.13; pIC50 (HLA-DR DRB1*0901 (DR9); read-out: DRB1 *0901): < 3.73
LDIYQKLYIKQEEQK	5.55	5.83	< 4.05	5.92	5.36	7.33	7.15	5.16	–	–
FIHFFTWGTMFVPKY	–	6.56	6.31	5.77	6.48	5.62	–	5.02	–	–
SFLQNPQTSLCCFRK	–	–	–	–	–	–	–	–	–	pIC50 (HLA-DR DRB1*0301 (DR3); read-out: DRB1 *0301): 5.74; pIC50 (HLA-DR DRB1*0401 (DR4); read-out: DRB1 *0401): 6.17; pIC50 (HLA-DR DRB1*0701 (DR7); read-out: DRB1 *0701): 5.15; pIC50 (HLA-DR DRB1*0802 (DR8); read-out: DRB1 *0802): 5.15
CC[C@H](C)[C@H](NC(=O)CNC(=O)[C@H](CCC(N)=O)NC(=O)[C@H](CC(C)C)NC(=O)[C@@H](NC(=O)CNC(=O)[C@H](CC(N)=O)NC(=O)[C@H](CS)NC(=O)[C@@H](NC(=O)[C@H](CC(C)C)NC(=O)[C@@H]1CCCN1C(=O)CN)C(C)C)C(C)C)C(=O)N[C@H](C(=O)N[C@@H](CO)C(=O)N[C@@H](Cc1c[nH]c2ccccc12)C(=O)O)[C@@H](C)O	5.76	7.52	5.31	5.38	7.31	5.20	6.19	5.18	4.49	pIC50 (HLA-DR DRB1*1101 (DR11)): 6.04
QKILIKIPVTKNIIT	6.00	6.52	6.27	5.65	6.48	5.44	6.02	6.53	–	–
IGYYDAQKLLEKMGG	–	4.90	< 4.08	5.08	5.24	5.70	4.87	–	4.33	pIC50 (HLA-DR DRB1*1101 (DR11)): < 4.54
TAWTIVRVEILRYFY	–	–	–	–	–	–	–	–	–	pIC50 (HLA-DR DRB1*0101 (DR1); read-out: DRB1 *0101): 8.11; pIC50 (HLA-DR DRB1*0301 (DR3); read-out: DRB1 *0301): 5.52; pIC50 (HLA-DR DRB1*0401 (DR4); read-out: DRB1 *0401): 7.36; pIC50 (HLA-DR DRB1*0701 (DR7); read-out: DRB1 *0701): 7.54; pIC50 (HLA-DR DRB1*0802 (DR8); read-out: DRB1 *0802): 4.24
CC[C@H](C)[C@H](NC(=O)[C@H](CCCCN)NC(=O)[C@H](C)NC(=O)[C@@H]1CCCN1C(=O)[C@H](CCC(=O)O)NC(=O)[C@H](CO)NC(=O)[C@H](CC(C)C)NC(=O)[C@H](CCCNC(=N)N)NC(=O)[C@H](CC(C)C)NC(=O)[C@H](CC(C)C)NC(=O)[C@H](CCSC)NC(=O)[C@H](CC(C)C)NC(=O)[C@H](CC(=O)O)NC(=O)[C@@H](N)Cc1c[nH]cn1)C(=O)N[C@H](C(=O)O)[C@@H](C)O	7.80	5.51	6.96	6.26	9.08	–	7.92	–	7.37	–
VEALYLVCGERGFLY	7.85	–	5.27	4.98	5.73	–	7.72	5.29	5.51	pIC50 (HLA-DR DRB1*1101 (DR11)): 4.26
PRSLQCVSLHLLSND	5.95	4.80	5.65	5.21	5.43	5.80	6.26	4.33	4.55	pIC50 (HLA-DR DRB1*1101 (DR11)): 4.95
CSCC[C@H](NC(=O)[C@H](CCC(N)=O)NC(=O)[C@H](CC(C)C)NC(=O)CNC(=O)[C@H](CO)NC(=O)[C@@H](NC(=O)[C@@H](NC(=O)[C@@H](NC(=O)[C@@H](N)CC(=O)O)[C@@H](C)O)[C@@H](C)O)C(C)C)C(=O)N[C@@H](C)C(=O)N[C@@H](CC(C)C)C(=O)N[C@@H](CC(=O)O)C(=O)N[C@H](C(=O)N[C@@H](Cc1ccc(O)cc1)C(=O)N[C@@H](CC(N)=O)C(=O)O)C(C)C	–	5.35	4.83	< 3.61	5.46	5.98	6.02	< 3.70	5.54	pIC50 (HLA-DR DRB1*1101 (DR11)): < 4.30
MTNLAALFPPEGVS	–	–	–	–	–	–	–	–	–	pIC50 (HLA-DR DRB1*0101 (DR1); read-out: DRB1 *0101): 7.62; pIC50 (HLA-DR DRB1*0401 (DR4); read-out: DRB1 *0401): < 4.40; pIC50 (HLA-DR DRB1*0701 (DR7); read-out: DRB1 *0701): < 3.90; pIC50 (HLA-DR DRB1*0802 (DR8); read-out: DRB1 *0802): 4.41; pIC50 (HLA-DR DRB1*0901 (DR9); read-out: DRB1 *0901): 4.64
FENLVAENVKPPKVD	7.25	5.62	3.92	< 4.60	5.52	< 4.29	5.03	4.20	–	–
VAQVRGGMVFELANS	–	–	–	–	–	–	–	–	–	pIC50 (HLA-DR DRB1*0401 (DR4); read-out: DRB1 *0401): 6.18; pIC50 (HLA-DR DRB1*0701 (DR7); read-out: DRB1 *0701): 5.35; pIC50 (HLA-DR DRB1*0802 (DR8); read-out: DRB1 *0802): < 4.01; pIC50 (HLA-DR DRB1*0901 (DR9); read-out: DRB1 *0901): 6.30
KPAVYTKVVHYRICWI	–	–	–	–	–	–	–	–	–	pIC50 (HLA-DR DRB1*0101 (DR1); read-out: DRB1 *0101): 5.30; pIC50 (HLA-DR DRB1*0701 (DR7); read-out: DRB1 *0701): 5.62; pIC50 (HLA-DR DRB1*0802 (DR8); read-out: DRB1 *0802): 7.28; pIC50 (HLA-DR DRB1*0901 (DR9); read-out: DRB1 *0901): 5.43
CC[C@H](C)[C@H](N)C(=O)N[C@@H](CO)C(=O)N[C@H](C(=O)N[C@H](C(=O)N[C@@H](CC(N)=O)C(=O)N[C@@H](CCC(=O)O)C(=O)N[C@@H](CC(=O)O)C(=O)NCC(=O)N[C@@H](CC(N)=O)C(=O)N[C@@H](CCC(=O)O)C(=O)N[C@H](C(=O)N[C@@H](Cc1ccccc1)C(=O)N[C@@H](CC(N)=O)C(=O)N[C@H](C(=O)N[C@@H](CO)C(=O)O)[C@@H](C)O)[C@@H](C)CC)[C@@H](C)CC)[C@@H](C)CC	–	< 4.89	< 4.64	< 3.91	–	–	–	–	< 4.28	pIC50 (HLA-DR DRB1*0301 (DR3)): 6.25
KCEFQDAYVILLSEKK	7.85	7.14	6.47	6.31	< 4.99	< 4.32	< 4.71	7.70	–	pIC50 (HLA-DR DRB1*0301 (DR3)): 5.24
PRWLCAGALVLAGGF	7.34	< 4.70	6.12	4.58	4.69	–	6.05	4.39	5.84	pIC50 (HLA-DR DRB1*1101 (DR11)): < 4.40
ALLIIPPKIHISIEL	6.19	5.76	8.08	4.92	–	5.74	8.00	5.15	–	–
DSSIEGNYTLRVDCT	–	–	–	–	–	–	–	–	–	pIC50 (HLA-DR DRB1*0701 (DR7); read-out: DRB1 *0701): 4.84; pIC50 (HLA-DR DRB1*0802 (DR8); read-out: DRB1 *0802): < 3.79; pIC50 (HLA-DR DRB1*0901 (DR9); read-out: DRB1 *0901): < 3.73
